We go through two compounds from publication PMC6175823, “Identification of novel acetylcholinesterase inhibitors designed by pharmacophore-based virtual screening, molecular docking and bioassay” (Scientific Reports, 2018).

Entries after “also recorded” stand apart in the source; their conditions may differ.

The test system of one test is bAchE. The following applies: read-out: bAchE IC50; Tacrine (Ellman method); source not given; cited from earlier work. (In general: Ellman's reagent forms a yellow product with free thiols.)
The target of test [1] is T1, horse butyrylcholinesterase (Equus caballus, UniProt P81908).
T1 construct: purchased Sigma (St. Louis, MO)
Put plainly: biochemical. Type of test: biochemical. From the text: Acetylcholinesterase from electrophorus electricus (electric eel), horse butyrylcholinesterase, Acetylcholine iodide, S-butyrylthiocholine chloride and 5,5′-dithio-bis-nitrobenzoic acid (DTNB) were purchased from the Sigma (St. Louis, MO) while bovine serum albumin (BSA) purchased from Research and Diagnostic Technology (RDT). Buffers and other chemicals were purchases from pure chemicals as a pure experimental grade. All the reagents and experimental conditions were same as described by previous reports. […] Acetylcholinesterase and butyrylcholinesterase inhibition was performed spectrometrically using acetylthiocholine and butyrylthiocholine as a substrate. Experiment was performed with slight modification in the method described by Ellman et al.[78]. Then, […] sodium phosphate buffer (pH 8.0), enzyme preparation and different concentration of test compound was mixed and incubated for 30 min followed by the addition of DTNB and the reactions was initiated by adding respective enzyme substrate like acetylthiocholine iodide, butyrylthiocholine chloride for Acetylcholinesterase and butyrylcholinesterase inhibition assay respectively. The hydrolysis of acetylthiocholine or butyrylthiocholineyield a dark yellow 5-thio-2-nitrobenzoate anion because of the reaction between DTNB with enzyme and enzyme substrate. […] Solvent used for compound dilution was used for the negative control. Percentage inhibition was calculated taking negative control as 100%.

Test [2] addresses T2, Acetylcholinesterase from electrophorus electricus (electric eel) (Electrophorus electricus, UniProt O42275).
T2 construct: purchased Sigma (St. Louis, MO)
The test can be described thus: biochemical. The following applies: modified Ellman's method, eeAChE; read-out: AchE IC50. From the text:
Acetylcholinesterase from electrophorus electricus (electric eel), horse butyrylcholinesterase, Acetylcholine iodide, S-butyrylthiocholine chloride and 5,5′-dithio-bis-nitrobenzoic acid (DTNB) were purchased from the Sigma (St. Louis, MO) while bovine serum albumin (BSA) purchased from Research and Diagnostic Technology (RDT). Buffers and other chemicals were purchases from pure chemicals as a pure experimental grade. All the reagents and experimental conditions were same as described by previous reports. […] Acetylcholinesterase and butyrylcholinesterase inhibition was performed spectrometrically using acetylthiocholine and butyrylthiocholine as a substrate. Experiment was performed with slight modification in the method described by Ellman et al.[78]. Then, […] sodium phosphate buffer (pH 8.0), enzyme preparation and different concentration of test compound was mixed and incubated for 30 min followed by the addition of DTNB and the reactions was initiated by adding respective enzyme substrate like acetylthiocholine iodide, butyrylthiocholine chloride for Acetylcholinesterase and butyrylcholinesterase inhibition assay respectively. The hydrolysis of acetylthiocholine or butyrylthiocholineyield a dark yellow 5-thio-2-nitrobenzoate anion because of the reaction between DTNB with enzyme and enzyme substrate. […] Percentage inhibition was calculated taking negative control as 100%.

T1 sequence (P81908 whole entry): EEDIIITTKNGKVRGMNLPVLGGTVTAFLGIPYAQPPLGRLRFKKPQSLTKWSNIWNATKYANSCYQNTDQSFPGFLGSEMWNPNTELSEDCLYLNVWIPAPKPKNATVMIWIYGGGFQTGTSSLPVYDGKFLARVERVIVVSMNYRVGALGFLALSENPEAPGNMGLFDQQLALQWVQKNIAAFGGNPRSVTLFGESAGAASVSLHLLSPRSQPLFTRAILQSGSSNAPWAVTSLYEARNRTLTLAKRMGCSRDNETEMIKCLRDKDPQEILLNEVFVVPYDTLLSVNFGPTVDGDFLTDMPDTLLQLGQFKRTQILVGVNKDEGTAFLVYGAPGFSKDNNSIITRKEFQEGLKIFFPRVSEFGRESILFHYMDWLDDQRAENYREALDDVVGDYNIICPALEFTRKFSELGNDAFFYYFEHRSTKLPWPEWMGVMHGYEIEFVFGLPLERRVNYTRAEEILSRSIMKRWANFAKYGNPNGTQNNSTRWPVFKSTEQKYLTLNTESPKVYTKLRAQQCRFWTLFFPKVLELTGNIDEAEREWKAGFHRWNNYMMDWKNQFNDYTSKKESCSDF
T2 sequence (O42275 24-633): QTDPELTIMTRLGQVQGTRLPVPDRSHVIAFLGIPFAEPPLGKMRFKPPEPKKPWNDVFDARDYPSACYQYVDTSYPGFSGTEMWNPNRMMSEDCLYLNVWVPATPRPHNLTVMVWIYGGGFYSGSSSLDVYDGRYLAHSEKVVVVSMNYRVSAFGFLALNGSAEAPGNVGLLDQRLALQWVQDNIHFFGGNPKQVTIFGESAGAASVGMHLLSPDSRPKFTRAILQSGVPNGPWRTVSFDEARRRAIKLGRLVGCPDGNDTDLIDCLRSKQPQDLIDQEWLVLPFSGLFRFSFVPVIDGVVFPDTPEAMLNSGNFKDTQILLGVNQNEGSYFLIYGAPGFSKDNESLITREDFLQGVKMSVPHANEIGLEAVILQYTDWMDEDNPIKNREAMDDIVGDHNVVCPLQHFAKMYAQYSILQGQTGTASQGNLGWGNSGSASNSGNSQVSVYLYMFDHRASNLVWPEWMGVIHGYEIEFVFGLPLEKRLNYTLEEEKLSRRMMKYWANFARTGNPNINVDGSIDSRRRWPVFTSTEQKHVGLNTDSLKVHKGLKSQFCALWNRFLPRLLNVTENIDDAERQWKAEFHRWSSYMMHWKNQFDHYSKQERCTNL

Broadly, the IC50 is the point on the concentration scale where inhibition reaches its midpoint. For `Nc1c2c(nc3ccccc13)CCCC2` [Tacrine], the 50% inhibitory concentration (IC50) in the test on bAchE was 0.058 µM.
`COc1ccccc1OCCN(CC(=O)CC(O)c1cccc(-c2ccccc2)c1)Cc1ccccc1` (stereo not shown) [5c, 4-([1,1′-biphenyl]-3-yl)-1-(benzyl(2-(2-methoxyphenoxy)ethyl)amino)-4-hydroxybutan-2-one]: the IC50 in test [1] (modified Ellman's method, horse BuChE, read-out: bAchE IC50) is more than 500 µM; in test [2], 58.3 µM. Besides, the “effect against BchE” value in test [1] (result in words) was “without inhibiting; also recorded: did not showed the effect”.
